Each compound was assayed against recombinant rat mGluR5 (Rattus norvegicus (Rat), UniProt P31424) (assay: Functional calcium flux assay (FLIPR)). Details: HEK293 cells stably expressing recombinant rat mGluR5; inhibition of glutamate-evoked [Ca2+]i increase, 15 min incubation of test compound.
Assay type: cell-based
Experimental: For functional assays, HEK293 cells stably expressing recombinant rat mGluR5 were seeded in 384-well plates and dye loaded using Fluo-8. Cells were then washed to remove the un-incorporated dye. Antagonist evaluation was performed following a 15 min incubation of the test compound followed by the addition of submaximal concentration of glutamate. Intracellular calcium ([Ca^2+]i) measurements were performed using a fluorometric imaging plate reader (FLIPR, Molecular Devices). The glutamate-evoked increase in [Ca^2+]i in the presence of the test compounds was compared to the response to glutamate alone (the positive control). Antagonist inhibition curves were fitted with a 4-parameter logistic equation giving IC50 values, and Hill coefficients using an iterative nonlinear curve fitting algorithm.
The tables below provide IC50 data in this assay. In the activity column, A=IC50>1,000 and <5,000 nM; B=IC50>500 and <1,000 nM and C=IC50<500 nM.

recombinant rat mGluR5, sequence (P31424 21-1203): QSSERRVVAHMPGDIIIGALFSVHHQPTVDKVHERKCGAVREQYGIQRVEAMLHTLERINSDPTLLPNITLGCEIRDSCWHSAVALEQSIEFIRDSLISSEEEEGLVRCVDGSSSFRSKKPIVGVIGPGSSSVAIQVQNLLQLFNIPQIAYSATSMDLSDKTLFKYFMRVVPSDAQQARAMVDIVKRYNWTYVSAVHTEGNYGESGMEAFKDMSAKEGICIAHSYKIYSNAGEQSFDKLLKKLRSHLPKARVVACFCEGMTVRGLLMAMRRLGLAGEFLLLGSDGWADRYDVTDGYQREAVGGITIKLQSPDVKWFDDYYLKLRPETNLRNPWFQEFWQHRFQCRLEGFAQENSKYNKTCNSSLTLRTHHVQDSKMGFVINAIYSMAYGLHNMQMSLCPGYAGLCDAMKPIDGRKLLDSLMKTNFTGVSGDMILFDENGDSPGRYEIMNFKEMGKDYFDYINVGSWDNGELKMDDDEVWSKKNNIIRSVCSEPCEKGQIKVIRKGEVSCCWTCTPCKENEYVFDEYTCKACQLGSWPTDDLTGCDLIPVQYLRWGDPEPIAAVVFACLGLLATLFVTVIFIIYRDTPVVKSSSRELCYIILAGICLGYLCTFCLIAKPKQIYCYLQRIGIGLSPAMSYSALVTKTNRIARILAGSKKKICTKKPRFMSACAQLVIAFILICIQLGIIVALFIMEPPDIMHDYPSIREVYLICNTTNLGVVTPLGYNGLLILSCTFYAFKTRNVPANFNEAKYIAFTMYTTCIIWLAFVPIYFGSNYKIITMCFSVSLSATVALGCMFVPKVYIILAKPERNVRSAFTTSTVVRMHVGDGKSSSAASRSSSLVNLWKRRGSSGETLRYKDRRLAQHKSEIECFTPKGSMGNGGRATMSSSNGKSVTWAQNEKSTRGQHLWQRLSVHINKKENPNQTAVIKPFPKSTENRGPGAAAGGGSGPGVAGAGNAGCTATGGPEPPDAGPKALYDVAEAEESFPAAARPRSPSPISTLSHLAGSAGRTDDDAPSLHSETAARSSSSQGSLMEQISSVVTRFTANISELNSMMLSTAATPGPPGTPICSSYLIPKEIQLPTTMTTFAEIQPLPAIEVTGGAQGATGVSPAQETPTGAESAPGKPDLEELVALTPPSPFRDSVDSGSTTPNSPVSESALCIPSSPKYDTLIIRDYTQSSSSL

Row | SMILES | IC50
1 | Cc1nc(C#CC23CC2CN(C(=O)c2cccc(Cl)c2)C3)cs1 (stereo not drawn) [Example Compound 49, (3-chlorophenyl)-(1-((2-methylthiazol-4-yl)ethynyl)-3-azabicyclo[3.1.0]hexan-3-yl)methanone] | < 500 nM
2 | O=C(C1CCCC1)N1C[C@H]2C[C@@]2(C#Cc2ccccn2)C1 [Example Compound 51, cyclopentyl((1R,5S)-1-(pyridin-2-ylethynyl)-3-azabicyclo[3.1.0]hexan-3-yl)methanone] | < 500 nM
3 | CCCNC(=O)N1C[C@H]2C[C@@]2(C#Cc2ccccn2)C1 [Example Compound 58, (1R,5S)—N-propyl-1-(pyridin-2-ylethynyl)-3-azabicyclo[3.1.0]hexane-3-carboxamide] | < 500 nM
4 | O=C(N1CCCC1)N1CC2CC2(C#Cc2ccccn2)C1 (stereo not drawn) [Example Compound 59, (1-(pyridin-2-ylethynyl)-3-azabicyclo[3.1.0]hexan-3-yl)(pyrrolidin-1-yl)methanone] | < 500 nM
5 | O=C(NCC(F)(F)F)N1CC2CC2(C#Cc2ccccn2)C1 (stereo not drawn) [Example Compound 60, 1-(pyridin-2-yl-ethynyl)-N-(2,2,2-trifluoroethyl)-3-azabicyclo[3.1.0]hexane-3-carboxamide] | < 500 nM
6 | Cc1cccc(C#CC23CC2CN(C(=O)C(C)C)C3)n1 (stereo not drawn) [Example Compound 64, 2-methyl-1-(1-((6-methylpyridin-2-yl)ethynyl)-3-azabicyclo[3.1.0]hexan-3-yl)propan-1-one] | < 500 nM
7 | CC(C)C(=O)N1CC2CC2(C#Cc2cccc(Cl)n2)C1 (stereo not drawn) [Example Compound 65, 1-(1-((6-chloropyridin-2-yl)ethynyl)-3-azabicyclo[3.1.0]hexan-3-yl)-2-methylpropan-1-one] | < 500 nM
8 | Cc1nc(C#CC23CC2CN(C(=O)c2ccccc2)C3)cs1 (stereo not drawn) [Example Compound 66, (1-((2-methylthiazol-4-yl)ethynyl)-3-azabicyclo[3.1.0]hexan-3-yl)(phenyl)methanone] | < 500 nM
9 | CCCCC(=O)N1CC2CC2(C#Cc2csc(C)n2)C1 (stereo not drawn) [Example Compound 67, 1-(1-((2-mehylthyiazol-4-yl)ethynyl)-3-azabicyclo[3.1.0]hexan-3-yl)pentan-1-one] | < 500 nM
10 | Cc1nc(C#CC23CC2CN(C(=O)C(C)C)C3)cs1 (stereo not drawn) [Example Compound 68, 2-methyl-1-(1-((2-methylthiazol-4-yl)ethynyl)-3-azabicyclo[3.1.0]hexan-3-yl)propan-1-one] | < 500 nM
11 | Cc1nc(C#CC23CC2CN(C(=O)C(C)(C)C)C3)cs1 (stereo not drawn) [Example Compound 69, 2,2-dimethyl-1-(1-((2-methylthiazol-4-yl)ethynyl)-3-azabicyclo[3.1.0]hexan-3-yl)propan-1-one] | < 500 nM

Second part, the compound after the results:

Row | IC50 | SMILES
12 | < 500 nM | Cc1cccc(C#CC23CC2CN(c2cncc(F)c2)C3)n1 (stereo not drawn) [Example Compound 43, 3-(5-fluoropyridin-3-yl)-1-((6-methylpyridin-2-yl)ethynyl)-3-azabicyclo[3.1.0]hexane]
13 | < 500 nM | Cc1cccc(C#CC23CC2CN(C(=O)c2cccc(F)c2)C3)n1 (stereo not drawn) [Example Compound 44, (3-fluorophenyl)-(1-((6-methylpyridin-2-yl)ethynyl)-3-azabicyclo[3.1.0]hexan-3-yl)methanone]
14 | < 500 nM | Fc1cc(F)cc(N2CC3CC3(C#Cc3ncccn3)C2)c1 (stereo not drawn) [Example Compound 45, 3-(3,5-difluorophenyl)-1-(pyrimidin-2-ylethynyl)-3-azabicyclo[3.1.0]hexane]
15 | < 500 nM | Fc1cccc(N2CC3CC3(C#Cc3ncccn3)C2)c1 (stereo not drawn) [Example Compound 46, 3-(3-fluorophenyl)-1-(pyrimidin-2-ylethynyl)-3-azabicyclo[3.1.0]hexane]
16 | < 500 nM | Cc1nc(C#CC23CC2CN(c2cccc(C#N)c2)C3)cs1 (stereo not drawn) [Example Compound 47, 3-(1-((2-methylthiazol-4-yl)ethynyl)-3-azabicyclo[3.1.0]hexan-3-yl)benzonitrile]
17 | < 500 nM | Cc1nc(C#CC23CC2CN(c2cncc(F)c2)C3)cs1 (stereo not drawn) [Example Compound 48, 4-((3-(S-fluoropyridin-3-yl)-3-azabicyclo[3.1.0]hexan-1-yl)ethynyl)-2-methylthiazole]
18 | < 500 nM | N#Cc1cncc(N2CC3CC3(C#Cc3ccccn3)C2)c1 (stereo not drawn) [Example Compound 50, S-(1-(pyridin-2-ylethynyl)-3-azabicyclo[3.1.0]hexan-3-yl)nicotinonitrile]
19 | < 500 nM | CC(C)(C)C(=O)N1C[C@H]2C[C@@]2(C#Cc2ccccn2)C1 [Example Compound 52, 2,2-dimethyl-1-((1R,5S)-1-(pyridin-2-ylethynyl)-3-azabicyclo[3.1.0]hexan-3-yl)propan-1-one]
20 | < 500 nM | COC(=O)N1CC2CC2(C#Cc2ccccn2)C1 (stereo not drawn) [Example Compound 53, methyl 1-(pyridin-2-ylethynyl)-3-azabicyclo[3.1.0]hexane-3-carboxylate]
21 | < 500 nM | O=C(c1cncc(Cl)c1)N1C[C@H]2C[C@@]2(C#Cc2ccccn2)C1 [Example Compound 54, (5-chloropyridin-3-yl)((1R,5S)-1-(pyridin-2-ylethynyl)-3-azabicyclo[3.1.0]hexan-3-yl)methanone]
22 | < 500 nM | O=C(c1cc(Cl)ccn1)N1CC2CC2(C#Cc2ccccn2)C1 (stereo not drawn) [Example Compound 55, (4-chloropyridin-2-yl)-(1-(pyridin-2-ylethynyl)-3-azabicyclo[3.1.0]hexan-3-yl)methanone]
23 | < 500 nM | O=C(c1ccc(Cl)nc1)N1CC2CC2(C#Cc2ccccn2)C1 (stereo not drawn) [Example Compound 56, (6-chloropyridin-3-yl)-(1-(pyridin-2-ylethynyl)-3-azabicyclo[3.1.0]hexan-3-yl)methanone]
24 | 500 to 1000 nM | O=C(Nc1ccccc1)N1CC2CC2(C#Cc2ccccn2)C1 (stereo not drawn) [Example Compound 57, N-phenyl-1-(pyridin-2-ylethynyl)-3-azabicyclo[3.1.0]hexane-3-carboxamide]
25 | 500 to 1000 nM | O=C(c1cccc(Cl)c1)N1CC2CC2(C#Cc2ncccn2)C1 (stereo not drawn) [Example Compound 61, (3-chlorophenyl)-(1-(pyrimidin-2-ylethynyl)-3-azabicyclo[3.1.0]hexan-3-yl)methanone]
26 | < 500 nM | N#Cc1cccc(N2CC3CC3(C#Cc3ncccn3)C2)c1 (stereo not drawn) [Example Compound 62, 3-(1-(pyrimidin-2-ylethynyl)-3-azabicyclo[3.1.0]hexan-3-yl)benzonitrile]
27 | < 500 nM | Fc1cncc(N2CC3CC3(C#Cc3ncccn3)C2)c1 (stereo not drawn) [Example Compound 63, 3-(5-fluoropyridin-3-yl)-1-(pyrimidin-2-ylethynyl)-3-azabicyclo[3.1.0]hexane]

— US10328054B2, “Substituted pyrrolidines as mGluR5 antagonists” (Hua Medicine (Shanghai) Ltd., priority 2015, dated 2019)
